The subject of data set [1] is levan fructotransferase from A. ureafaciens K2032. In words: Effect of additives on the activity of levan fructotransferase. It is filed as biochemical. Here is the method:
(§1) The purified enzyme was 51,000 in molecular weight as measured by SDS-PAGE while being measured to have a molecular weight of 96,000 by gel filtration chromatography. Thus, it was identified as being a dimer in aqueous conditions. […] Also, it was of optimal activity at 55° C. […] Whereas being inhibited by Mn^2+, Fe^2+ and Hg^2+, the activity of the enzyme was enhanced by […] and Ca^2+.

Data set [2] is classed as biochemical, A. ureafaciens K2032. The procedure:
A. ureafaciens K2032 was inoculated in a selective broth containing levan as a major carbon source and cultured at 30° C. for 72 hours in an incubator. Investigation into the growth and levan fructotransferase activity of the bacteria provided the knowledge that the largest enzyme activity is obtained after 10 hours of the incubation. From the culture incubated for 10 hours, the enzyme was purified (FIG. 5). In this regard, the purification was achieved by successively using acetone precipitation, ion exchange chromatography (DEAE 650-M and Mono Q), and gel filtration chromatography, resulting in producing levan fructotransferase with a specific activity of 2269 U/mg protein at an amount of 1.1 mg at a yield of 29.8% (Table 8).
as §1
The newly isolated levan fructotransferase structural gene is composed of 1566 bp which corresponds to 521 aa. The gene of the present invention has a signal sequence consisting of 99 bp (corresponding to 33 aa) at its N-terminus and therefore, the putative completed protein may be about 56 kDa in molecular weight. […] This levan fructotransferase gene is longer by 15 bases (5 amino acids) than is the levan fructotransferase gene derived from A. nicotinovorans GS-9. These two genes are 81% in the homology of amino acid sequence (76% in the homology of base sequence). Consequently, the levan fructotransferase gene of A. ureafaciens K2032 was identified as being new and its base sequence was registered in the GenBank, U.S.A. (Accession No. AF181254).

Setting [3] is: additive concentration 1 mM, control = 100.
Setting [4] is: additive concentration 10 mM, control = 100.

This is an account of results in patent publication US6841368B1, “Enzymatic production of difructose dianhydride IV from sucrose and relevant enzymes and genes coding for them” (priority 1999, dated 2005).

Where two headings read alike, the source gives them in different places. Bounds are passed on as bounds.

Turning to `[Ca+2].[Cl-].[Cl-]` [CaCl2], the Relative activity in data set [1] (setting [3]) is reported as 156%; in data set [1] (setting [4]), 181%. Moreover, in data set [1] (metal ions), the “Effect on the activity of the enzyme (in words)” value (“Effect on the activity” for short) was “enhanced”.

Turning to `O=C(O)CN(CCN(CC(=O)O)CC(=O)O)CC(=O)O` [EDTA, reference compound], the Relative activity in data set [1] (setting [3]) turned out to be 95%; in data set [1] (setting [4]), 94%.

For the molecule `[Cl][Fe][Cl]` [FeCl2], in data set [1] (setting [3]), the Relative activity came out at 4%. Also, in data set [1] (metal ions), the “Effect on the activity” value is given as “inhibited”.

On to `[Cl][Hg][Cl]` [HgCl2], for which, in data set [1] (setting [3]), the Relative activity was 0%. Besides, in data set [1] (metal ions), the “Effect on the activity” value was “inhibited”.

Take `[Cl-].[K+]` [KCl]: the Relative activity in data set [1] (setting [3]) came out at 89%.

In the case of `[Cl-].[Li+]` [LiCl], the Relative activity in data set [1] (setting [3]) came to 92%.

On to `[Cl-].[Cl-].[Mg+2]` [MgCl2], for which the Relative activity in data set [1] (setting [3]) came out at 63%.

In the case of `[Cl][Mn][Cl]` [MnCl2], the Relative activity in data set [1] (setting [3]) is recorded as 9%. The “Effect on the activity” value in data set [1] (metal ions) is given as “inhibited”.

As to `Cl.N` [NH4Cl], the Relative activity in data set [1] (setting [3]) is on record as 46%.

Take `[Cl-].[Na+]` [NaCl]: in data set [1], the “Effect on the activity” value is reported as “enhanced” and the Relative activity was 125, 142%.

On to `[Cl][Ni][Cl]` [NiCl], for which, in data set [1] (setting [3]), the Relative activity is 74%.

As to `CCCCCCCCCCCCOS(=O)(=O)[O-].[Na+]` [SDS, sodium dodecylsulfate, reference compound], the figures for the Relative activity in data set [1] (setting [3]) and in data set [1] (setting [4]) were 101% and 32%, respectively.

Turning to `[Cl-].[Cl-].[Zn+2]` [ZnCl2], the Relative activity in data set [1] (setting [3]) is reported as 23%.

B1: levan fructotransferase: enzyme purified from A. ureafaciens K2032 that produces DFA IV from levan; SEQ ID NO: 1 (protein)
chain: MTPAISRRAVLQGAGAGALALIFGGAVPPAARASAPGSLRAVYHMTPPSGWLCDPQRPVTTHGAYQLYYLHSDQNNGPGGWDHASTTDGVAFTHHGTVMPLRPDFPVWSGSAVVGTANTAGFGAGAVVALATQPTDGVRKYQEQYLYWSTDGGFTFTALPDPVIVNTDGRAATTPAEIENAEWFRDPKIHWDTARGEWVCVIGRLRYAAFYTSPNLRDWTLRRNFDYPNHALGGIECPDLFEITADDGTRHWVLAASMDAYGIGLPMTYAYWTGTWDGEQFHADDLTPQWLDWGWDWYAAVTWPSIDAPETKRLAIAWMNNWKYAARDVPTDASDGYNGQNSIVRELRLARQPGGWYTLLSTPVAALTNYVTATTTLPDRTVDGSAVLPWNGRAYEIELDIAWDTATNVGISVGRSPDGTRHTNIGKYGADLYVDRGPSDLAGYSLAPYSRAAAPIDPGARSVHLRILVDTQSVEVFVNAGHTVLSQQVHFAEGDTGISLYTDGGPAHFTGIVVREIGQAI
modifications: Arthrobacter ureafaciens K2032
On to B1, for which the “pH range in which the enzyme maintains its stability” value in data set [2] is listed as 4-10.5. The molecule further had a Specific activity in data set [2] (after acetone precipitation, ion exchange and gel filtration chromatography) of 2269 U/mg protein. For the same molecule, the Remnant activity in data set [2] (after standing at 50° C. for 30 min) is recorded as ≥ 90%. The Isoelectric point in data set [2] (levan fructotransferase encoded by lftA) worked out at 5.15 pH.
